Assay results taken from patent US12691114B2, “Compositions for inhibition of herpesviruses” (The Medical College of Wisconsin, Inc., priority 2020, dated 2026).
Read-outs that look alike come from different tables or passages of the source.

Key:
[1] = system: Mouse CMV (MCMV) Smith strain; test: Plaque assay, mouse CMV in MEFs; format: cell-based, mouse cytomegalovirus; settings: plaque reduction; for EC50: MEFs, NA = Not active
Text: (§1) Viruses and antiviral assays: A recombinant pp28-luciferase Towne HCMV strain expressing luciferase under the control of the UL99 (pp28) late promoter was reported to provide a highly-sensitive and reproducible reporter for drug screening^20. A GCV-resistant HCMV pp28-luciferase that contains a C607Y mutation in UL97 was reported^37. The HCMV TB40 strain was obtained from ATCC (VR-1578). Clinical isolates of Human Herpesvirus 1 and 2 (HSV1, HSV2) were collected from the Johns Hopkins Microbiology laboratory without identifiers that could link them to a specific patient. Mouse CMV (MCMV) Smith strain (ATCC VR-1399) was used for infection of MEFs.
(§2) Plaque reduction assay: HFFs were seeded into 12-well plates (2×10^5 cells/well) and infected with HCMV TB40 at approximately 100 plaques/well. After 90 min, media were aspirated, and DMEM containing 0.5% carboxymethyl-cellulose (CMC), 4% fetal bovine serum (FBS), and drugs were added into duplicate wells. Following incubation at 37° C. for 10-12 days the overlay was removed, and plaques were counted after crystal violet staining. For HSV1 and HSV2 replication in Vero cells, the adsorption time was 60 min and plaques were counted after 36 h. Plaque assays in MEFs were completed after 3 days.
(§3) Inhibition of other herpesviruses: Inhibition of herpes simplex 1 and 2 (HSV1, HSV2), Epstein Barr virus (EBV) and mouse CMV (MCMV) was tested with the five compounds. Plaque reductions assays were used for HSV1, HSV2 and MCMV. Inhibition of lytic EBV replication was measured by real-time PCR in AKATA cells following IgG induction. Only MLS8554 was active against HSV1, HSV2 and MCMV (Table 2).

HCMV Towne DNA = test: Viral DNA by US17 real-time PCR in cells and supernatants; format: cell-based, human cytomegalovirus; settings: Towne MOI=0.1; NFU1827 5 μM, MLS8554 2 μM, MLS8091 1.5 μM, 2955 3 μM, GCV 5 μM
Text: DNA isolation and quantitative real-time (qPCR): Total DNA was isolated from non-infected control, and HCMV-infected HFFs using Wizard SV genomic DNA isolation kit (Promega, Madison, WI). To determine viral load in the supernatant, total DNA was isolated from supernatants using automated DNA extraction on the BioRobot M48 instrument (Qiagen, Valencia, CA). A US17 real-time PCR assay which targets 151-bp from the highly conserved US17 region of the CMV genome was used^39. The primers and probe for US17 are: […]

[2] = system: GCV-resistant HCMV Towne (C607Y mutation in UL97); test: microbe, parasite or virus in culture; format: cell-based, human cytomegalovirus
Text: A GCV-resistant HCMV pp28-luciferase that contains a C607Y mutation in UL97 was reported^37. The HCMV TB40 strain was obtained from ATCC (VR-1578). Clinical isolates of Human Herpesvirus 1 and 2 (HSV1, HSV2) were collected from the Johns Hopkins Microbiology laboratory without identifiers that could link them to a specific patient. Mouse CMV (MCMV) Smith strain (ATCC VR-1399) was used for infection of MEFs.
Luciferase activity: Cell lysates were collected at 72 hpi and luciferase activity was determined using the Glomax-Multi+Detection System (Promega, Madison, WI) as described previously^20.
HCMV inhibition was measured by luciferase activity of pp28-recombinant Towne and pp28 GCV-resistant Towne strains of HCMV (72 hpi) and by plaque reduction using HCMV Towne or TB40 (10 days). Viral protein expression was measured by Western blot.

[3] = system: HCMV Towne viral proteins (IE1/2, pp65, UL84, UL44); test: Immunoblot of viral protein expression in infected HFFs; format: cell-based, human cytomegalovirus; settings: HCMV Towne MOI of 1 PFU/cell, 72 hpi
Experimental: SDS-polyacrylamide gel electrophoresis and immunoblot analysis: Cell lysates containing equal amount of proteins were mixed with an equal volume of sample buffer (125 mM Tris-HCL, pH 6.8, 4% SDS, 20% glycerol and 5% β-mercaptoethanol) and boiled at 100° C. for 10 min. Denatured proteins were resolved in Tris-glycine polyacrylamide gels (8-10%) and transferred to polyvinylidine difluoride (PVDF) membranes (Bio-Rad Laboratories, Hercules, CA) by electroblotting. Membranes were incubated in blocking solution [5% w/v non-fat dry milk and 0.1% Tween-20 in PBS (PBST)] for 1 h, washed with PBST, and incubated with primary antibodies at 4° C. overnight. Membranes were washed with PBST and incubated with horseradish peroxidase-conjugated secondary antibodies in PBST for 1 h at room temperature. Following washing with PBST, protein bands were visualized by chemiluminescence using SuperSignal West Dura and Pico reagents (Pierce Chemical, Rockford, IL).
Antibodies: The following antibodies were used—Mouse monoclonal anti-HCMV IE1 & IE2 (MAB810, Millipore, Billerica, MA), mouse monoclonal anti-HCMV UL83 (pp65, Vector Laboratories Inc., Burlingame, CA), mouse monoclonal anti-HCMV UL44, mouse monoclonal anti-HCMV UL84, and mouse anti-β-actin anti-mouse IgG (Santa Cruz Biotechnology, Santa Cruz, CA). Horseradish peroxidase (HRP)-conjugated anti-mouse IgG was from GE Healthcare (Waukesha, WI). Horseradish peroxidase (RP)-conjugated anti-rabbit IgG was from Cell Signaling (Beverly, MA).

HSV1 clinical isolate = test: Plaque reduction assay, HSV1 in Vero cells; format: cell-based, Human Herpesvirus 1; settings: plaque reduction
Text: as §1, §2, §3

HCMV TB40 = test: Plaque reduction assay, HCMV TB40 in HFFs; format: cell-based, human cytomegalovirus; settings: 10 days
Experimental: as §2
Viral protein expression was measured by Western blot.

[4] = pp28 GCV-resistant Towne, luciferase, 72 hpi, read-out: EC50—GCVR Towne

| SMILES | activity against MCMV, in words [1] | viral DNA replication in cells, in words (HCMV Towne DNA) | viral DNA yield in supernatant, in words (HCMV Towne DNA) | EC50 ([2]; Human betaherpesvirus 5, read-out: EC50—GCVR Towne (μM)) | viral protein expression by Western blot, in words [3] | activity against HSV1, in words (HSV1 clinical isolate) | EC50 (HCMV TB40; Human betaherpesvirus 5, 240 h) | EC50 ([1]; Murid betaherpesvirus 1) | activity against GCV-resistant HCMV, in words [2] | EC50 [1] | EC50 [2, 4] | EC50 (HSV1 clinical isolate; Vero cells, NA = Not active, read-out: EC50—HSV1-C1) | EC50 (HCMV TB40) |
| --- | --- | --- | --- | --- | --- | --- | --- | --- | --- | --- | --- | --- | --- |
| CCN1CCN(CCCNC(=O)c2ccc3c(c2)sc2nc(-c4ccc(OC)cc4)cn23)CC1 [NFU1827, N-[3-(4-ethylpiperazin-1-yl)propyl]-4-(4-methoxyphenyl)-7-thia-2,5-diazatricyclo [6.4.0.02,6] dodeca-1(8),3,5,9,11-pentaene-10-carboxamide] | no activity | significantly reduced | significantly reduced | 0.84 ± 0.1 µM | reduced the level of both IE1 and IE2 | no activity | 1210 ± 100 nM |  |  |  |  |  |  |
| CC(C)NC(=O)C1CCN(C(=O)c2cc3sccc3n2Cc2ccc(Cl)cc2)CC1 [NCGC2955, 1-(4-(4-chlorobenzyl)-4H-thieno[3,2-b]pyrrole-5-carbonyl)-N-isopropylpiperidine-4-carboxamide] |  | modest | modest |  | strong reduction in viral protein expression including IE1 and IE2 |  | 1180 ± 200 nM | 1000 nM | inhibited |  |  |  |  |
| CCc1ccc(NC(=O)[C@H](Cc2c[nH]c3ccccc23)NC(=O)[C@@H]2Cc3ccccc3CN2)cc1 [MLS8554] | active | reduced | reduced |  | reduced expression of IE2, UL44, UL84 and pp65 | active |  |  | active | 11700 ± 2000 nM | 0.17 µM | 1780 ± 200 nM | 340 nM |
| Nc1c(S(=O)(=O)c2cccs2)c2nc3ccccc3nc2n1Cc1ccccc1 [MLS8091] | no activity | higher than that achieved with GCV | not significantly different from GCV |  | Inhibition of all viral proteins | no activity |  |  |  |  | 0.26 ± 0.02 µM |  | 330 nM |
